Where a name gives a salt, the structure may show the parent alone.
How the values were obtained:
[1] = molecular target: T1, c-Met (cytoplasmic domain) (Homo sapiens, UniProt P08581); assay: c-Met Kinase Assay (ELISA/TRF, PLC-γ substrate); assay type: biochemical; settings: 3 μM ATP (Km level); read-out: c-Met Kinase Inhibition (IC50)
T1 construct: Reactions were initiated with 30 ng/mL c-Met (cytoplasmic domain, Invitrogen Corporation #PV3143); purchased Invitrogen Corporation PV3143
Method in brief: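 c-Met cytoplasmic domain (30 ng/mL) phosphorylates plate-coated GST–PLC-γ for 15 min at 37 °C. Phosphotyrosine detected with Eu-labeled PT66 antibody by time-resolved fluorescence. IC50 from variable-slope sigmoidal fit of % inhibition vs log concentration.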

[2] = molecular target: baculovirus-expressed ALK (Homo sapiens, UniProt Q9UM73); assay: ALK Kinase Assay (ELISA/TRF, PLC-γ substrate); assay type: biochemical; settings: read-out: ALK Kinase Inhibition (IC50); note: 1 µM ATP (Km level)
Chain of baculovirus-expressed ALK (Q9UM73 19-1620): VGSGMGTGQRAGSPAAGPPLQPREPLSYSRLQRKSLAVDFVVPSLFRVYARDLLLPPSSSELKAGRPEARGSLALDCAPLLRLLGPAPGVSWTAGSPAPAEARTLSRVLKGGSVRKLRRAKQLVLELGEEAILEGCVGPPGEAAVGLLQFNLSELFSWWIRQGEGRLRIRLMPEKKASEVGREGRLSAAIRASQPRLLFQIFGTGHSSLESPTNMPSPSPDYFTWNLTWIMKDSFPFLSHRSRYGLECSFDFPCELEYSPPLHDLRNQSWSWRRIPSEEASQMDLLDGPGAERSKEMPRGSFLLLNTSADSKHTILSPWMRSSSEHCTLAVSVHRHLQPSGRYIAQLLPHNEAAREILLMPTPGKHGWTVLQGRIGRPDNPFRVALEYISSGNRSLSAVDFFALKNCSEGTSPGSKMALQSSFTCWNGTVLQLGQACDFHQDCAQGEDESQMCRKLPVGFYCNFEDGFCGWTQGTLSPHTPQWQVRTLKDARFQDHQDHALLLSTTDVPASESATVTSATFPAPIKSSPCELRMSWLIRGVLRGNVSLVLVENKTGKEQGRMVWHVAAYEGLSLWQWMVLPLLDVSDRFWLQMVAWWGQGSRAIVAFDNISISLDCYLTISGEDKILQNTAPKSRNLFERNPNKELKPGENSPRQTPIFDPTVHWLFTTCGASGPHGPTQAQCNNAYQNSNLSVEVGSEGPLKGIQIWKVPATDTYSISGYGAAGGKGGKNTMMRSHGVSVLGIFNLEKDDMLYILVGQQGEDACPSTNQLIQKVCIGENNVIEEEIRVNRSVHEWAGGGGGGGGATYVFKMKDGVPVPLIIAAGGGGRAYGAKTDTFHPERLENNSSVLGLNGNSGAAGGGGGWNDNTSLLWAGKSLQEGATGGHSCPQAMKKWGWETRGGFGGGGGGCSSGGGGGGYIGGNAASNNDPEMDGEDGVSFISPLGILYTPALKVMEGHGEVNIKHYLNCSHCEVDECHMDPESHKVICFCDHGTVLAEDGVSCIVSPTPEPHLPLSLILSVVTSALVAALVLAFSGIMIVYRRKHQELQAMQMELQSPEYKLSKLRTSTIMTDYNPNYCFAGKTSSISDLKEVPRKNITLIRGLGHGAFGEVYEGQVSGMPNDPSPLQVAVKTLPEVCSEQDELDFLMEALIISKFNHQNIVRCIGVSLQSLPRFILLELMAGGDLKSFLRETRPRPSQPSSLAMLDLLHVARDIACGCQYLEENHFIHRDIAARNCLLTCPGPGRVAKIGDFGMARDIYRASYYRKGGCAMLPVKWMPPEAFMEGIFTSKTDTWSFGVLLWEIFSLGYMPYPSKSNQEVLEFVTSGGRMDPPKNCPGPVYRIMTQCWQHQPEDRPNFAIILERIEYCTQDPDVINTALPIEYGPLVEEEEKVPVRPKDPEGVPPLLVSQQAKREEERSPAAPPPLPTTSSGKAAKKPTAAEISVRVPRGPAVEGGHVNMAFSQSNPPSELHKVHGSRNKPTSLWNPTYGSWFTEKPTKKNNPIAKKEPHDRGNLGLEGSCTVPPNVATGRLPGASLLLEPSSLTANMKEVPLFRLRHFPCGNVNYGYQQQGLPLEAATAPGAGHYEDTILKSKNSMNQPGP
Method in brief: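 Plates coated with GST-PLC-γ substrate (10 µg/mL in TBS), then reaction started with 30 ng/ml baculovirus-expressed ALK, 15 min at 37 °C. Phosphotyrosine detected by Eu-labeled PT66 antibody and time-resolved fluorescence. IC50 from variable-slope sigmoidal fit of percent inhibition versus log concentration.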

T1 sequence (P08581 956-1390 limits assumed): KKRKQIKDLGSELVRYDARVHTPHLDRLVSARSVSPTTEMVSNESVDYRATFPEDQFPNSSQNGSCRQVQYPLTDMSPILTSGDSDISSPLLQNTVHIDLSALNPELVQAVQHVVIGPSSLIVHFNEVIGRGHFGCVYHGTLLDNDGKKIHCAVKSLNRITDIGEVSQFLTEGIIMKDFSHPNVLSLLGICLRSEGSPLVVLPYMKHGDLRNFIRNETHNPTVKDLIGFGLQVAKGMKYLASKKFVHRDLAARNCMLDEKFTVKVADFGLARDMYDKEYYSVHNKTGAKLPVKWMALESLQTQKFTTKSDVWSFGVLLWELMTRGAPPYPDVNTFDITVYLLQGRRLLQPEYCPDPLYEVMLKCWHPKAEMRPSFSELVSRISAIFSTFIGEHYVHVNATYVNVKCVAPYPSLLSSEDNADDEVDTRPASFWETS

## CN(C)CCCCNC(=O)c1ccc(-c2cnc3c(c2)N(Cc2c(Cl)cccc2Cl)C(=O)CN3)cc1 (as salt: trifluoroacetic acid salt) [Example 144, 4-[1-(2,6-Dichlorobenzyl)-2-oxo-1,2,3,4-tetrahydropyrido[2,3-b]pyrazin-7-yl]-N-(4-dimethylaminobutyl)benzamide, trifluoroacetic acid salt]
other
  melting point: 147 °C

## CCOC(=O)CNc1ncc(I)cc1[N+](=O)[O-] [Example 1, (5-Iodo-3-nitro-pyridin-2-ylamino)-acetic acid ethyl ester]
[1]
  IC50: 10 to 100 µM
[2]
  IC50: 10 to 100 µM
other
  melting point: 200 °C (dec.)

## O=C1CNc2ncc(I)cc2N1 [Example 2, 7-Iodo-3,4-dihydro-1H-pyrido[2,3-b]pyrazin-2-one]
[1]
  IC50: > 100 µM
[2]
  IC50: > 100 µM
other
  melting point: 81 °C

## O=C1CNc2ncc(I)cc2N1Cc1c(F)ccc(F)c1Cl [Example 3, 1-(2-Chloro-3,6-difluorobenzyl)-7-iodo-3,4-dihydro-1H-pyrido[2,3-b]pyrazin-2-one]
[1]
  IC50: > 100 µM
[2]
  IC50: 10 to 100 µM
other
  melting point: 237 °C

## CCOC(=O)c1ccc(-c2cnc3c(c2)N(Cc2c(F)ccc(F)c2Cl)C(=O)CN3)cc1 [Example 5, 4-[1-(2-Chloro-3,6-difluorobenzyl)-2-oxo-1,2,3,4-tetrahydropyrido[2,3-b]pyrazin-7-yl]benzoic acid ethyl ester]
[1]
  IC50: > 100 µM
[2]
  IC50: 1 to 10 µM
other
  melting point: 180 to 182 °C

## O=C1CNc2ncc(I)cc2N1Cc1ccccc1 [Example 8, 1-Benzyl-7-iodo-3,4-dihydro-1H-pyrido[2,3-b]pyrazin-2-one]
[1]
  IC50: > 100 µM
[2]
  IC50: 10 to 100 µM
other
  melting point: 225 °C

## CCOC(=O)c1ccc(-c2cnc3c(c2)N(Cc2ccccc2)C(=O)CN3)cc1 [Example 9, 4-(1-Benzyl-2-oxo-1,2,3,4-tetrahydropyrido[2,3-b]pyrazin-7-yl)benzoic acid ethyl ester]
[1]
  IC50: > 100 µM
[2]
  IC50: 10 to 100 µM
other
  melting point: 178 °C

## O=C(O)c1ccc(-c2cnc3c(c2)N(Cc2ccccc2)C(=O)CN3)cc1 [Example 10, 4-(1-Benzyl-2-oxo-1,2,3,4-tetrahydropyrido[2,3-b]pyrazin-7-yl)benzoic acid]
[1]
  IC50: > 100 µM
[2]
  IC50: 10 to 100 µM
other
  melting point: > 200 °C

## O=C1CNc2ncc(-c3cccnc3)cc2N1Cc1ccccc1 [Example 11, 1-Benzyl-7-pyridin-3-yl-3,4-dihydro-1H-pyrido[2,3-b]pyrazin-2-one]
[1]
  IC50: 10 to 100 µM
[2]
  IC50: 10 to 100 µM
other
  melting point: 58 °C

## CN(C)CCCCCCNC(=O)c1ccc(-c2cnc3c(c2)N(Cc2ccccc2)C(=O)CN3)cc1 [Example 16, 4-(1-benzyl-2-oxo-1,2,3,4-tetrahydropyrido[2,3-b]pyrazin-7-yl)-N-(6-dimethylaminohexyl)benzamide]
[1]
  IC50: 10 to 100 µM
[2]
  IC50: 1 to 10 µM
other
  melting point: > 200 °C

## CC(=O)c1ccc(-c2cnc3c(c2)N(Cc2ccccc2)C(=O)CN3)cc1 [Example 21, 7-(4-Acetylphenyl)-1-benzyl-3,4-dihydro-1H-pyrido[2,3-b]pyrazin-2-one]
[1]
  IC50: > 100 µM
[2]
  IC50: 10 to 100 µM
other
  melting point: 200 °C

## NC(=O)c1ccc(-c2cnc3c(c2)N(Cc2ccccc2)C(=O)CN3)cc1 [Example 23, 4-(1-Benzyl-2-oxo-1,2,3,4-tetrahydropyrido[2,3-b]pyrazin-7-yl)benzamide]
[1]
  IC50: 10 to 100 µM
[2]
  IC50: 1 to 10 µM
other
  melting point: > 200 °C

## CCNC(=O)c1ccc(-c2cnc3c(c2)N(Cc2ccccc2)C(=O)CN3)cc1 [Example 27, 4-(1-Benzyl-2-oxo-1,2,3,4-tetrahydropyrido[2,3-b]pyrazin-7-yl)-N-ethyl-benzamide]
[1]
  IC50: 10 to 100 µM
[2]
  IC50: 10 to 100 µM
other
  melting point: 195 °C

## N#Cc1ccc(-c2cnc3c(c2)N(Cc2ccccc2)C(=O)CN3)cn1 [Example 28, 5-(1-Benzyl-2-oxo-1,2,3,4-tetrahydropyrido[2,3-b]pyrazin-7-yl)pyridine-2-carbonitrile]
[1]
  IC50: > 100 µM
[2]
  IC50: > 100 µM
other
  melting point: > 200 °C

## COC(=O)c1cccc(-c2cnc3c(c2)N(Cc2ccccc2)C(=O)CN3)c1 [Example 30, 3-(1-Benzyl-2-oxo-1,2,3,4-tetrahydropyrido[2,3-b]pyrazin-7-yl)benzoic acid methyl ester]
[1]
  IC50: 10 to 100 µM
[2]
  IC50: 1 to 10 µM
other
  melting point: 211 °C

## Ic1cnc2c(c1)N(Cc1ccccc1)CCN2 [Example 33, 1-Benzyl-7-iodo-1,2,3,4-tetrahydropyrido[2,3-b]pyrazine]
[1]
  IC50: > 100 µM
[2]
  IC50: 10 to 100 µM
other
  melting point: 147 to 148 °C

## CCOC(=O)c1ccc(-c2cnc3c(c2)N(Cc2ccccc2)CCN3)cc1 [Example 35, 4-(1-Benzyl-1,2,3,4-tetrahydropyrido[2,3-b]pyrazin-7-yl)benzoic acid ethyl ester]
[1]
  IC50: > 100 µM
[2]
  IC50: 1 to 10 µM
other
  melting point: 178 to 179 °C

## O=C(O)c1ccc(-c2cnc3c(c2)N(Cc2ccccc2)CCN3)cc1 [Example 36, 4-(1-Benzyl-1,2,3,4-tetrahydropyrido[2,3-b]pyrazin-7-yl)benzoic acid]
[1]
  IC50: 1 to 10 µM
[2]
  IC50: 0.1 to 1 µM
other
  melting point: > 300 °C

## CN1CCN(C(=O)c2ccc(-c3cnc4c(c3)N(Cc3ccccc3)CCN4)cc2)CC1 [Example 37, [4-(1-Benzyl-1,2,3,4-tetrahydropyrido[2,3-b]pyrazin-7-yl)phenyl]-(4-methylpiperazin-1-yl)methanone]
[1]
  IC50: 10 to 100 µM
[2]
  IC50: 1 to 10 µM
other
  melting point: 180 to 181 °C

## O=C(c1ccc(-c2cnc3c(c2)N(Cc2ccccc2)CCN3)cc1)N1CCC(N2CCCC2)CC1 [Example 39, [4-(1-Benzyl-1,2,3,4-tetrahydropyrido[2,3-b]pyrazin-7-yl)phenyl]-(4-(pyrrolidin-1-yl)piperidin-1-yl)methanone]
[1]
  IC50: 10 to 100 µM
[2]
  IC50: 1 to 10 µM
other
  melting point: 120 °C

## Ic1cnc2c(c1)NCCN2 [Example 40, 7-Iodo-1,2,3,4-tetrahydropyrido[2,3-b]pyrazine]
[1]
  IC50: > 100 µM
[2]
  IC50: > 100 µM
other
  melting point: 126 to 128 °C

## O=C(c1ccccc1)N1CCNc2ncccc21 [Example 41, (3,4-Dihydro-2H-pyrido[2,3-b]pyrazin-1-yl)phenylmethanone]
[1]
  IC50: > 100 µM
[2]
  IC50: > 100 µM
other
  melting point: 166 to 168 °C

## O=C(c1ccccc1)N1CCNc2ncc(I)cc21 [Example 42, (7-Iodo-3,4-dihydro-2H-pyrido[2,3-b]pyrazin-1-yl)phenylmethanone]
[1]
  IC50: > 100 µM
[2]
  IC50: > 100 µM
other
  melting point: 164 to 166 °C

## O=C(c1ccccc1)N1CCNc2ncc(-c3cccnc3)cc21 [Example 43, Phenyl-(7-pyridin-3-yl-3,4-dihydro-2H-pyrido[2,3-b]pyrazin-1-yl)methanone]
[1]
  IC50: 10 to 100 µM
[2]
  IC50: > 100 µM
other
  melting point: 219 to 220 °C

## O=C1CN(Cc2c(F)ccc(F)c2Cl)c2cc(Br)cnc2N1 [Example 436, 7-Bromo-1-(2-chloro-3,6-difluorobenzyl)-1,4-dihydro-2H-pyrido[2,3-b]pyrazin-3-one]
other
  melting point: 214 to 216 °C (dec.)

Reference: patent US7601716B2, “Pyridopyrazines and derivatives thereof as ALK and c-Met inhibitors” (Cephalon, Inc., priority 2006, dated 2009)
